In patent US20120172390A1, “METHOD OF TREATING SLEEP DISORDERS USING THE COMBINATION OF EPLIVANSERIN AND ZOLPIDEM” (priority 2009, published 2012):

Experiments:
[1] = Immediate recall of Word list, next-day morning; format: in vivo, human
[2] = Bond-Lader Visual Analog Scale (VAS), next-day morning; format: in vivo, human
[3] = Global analysis of the 7 primary psychomotor/cognitive endpoints (multivariate mixed effect model); format: in vivo, human
[4] = in vivo; cited from earlier work
[5] = Adverse events and tolerability in healthy individuals
Procedure: Single center study employing a two-part, double-blind, randomized, placebo- and active-controlled, 4-way crossover design (FIG. 1). Eligibility criteria included certification of good health, 18-50 years of age, and written informed consent.
Part A (the first part of the study): participants were first administered either one evening dose of flurazepam 30 mg or matching placebo, and after a 21-day washout period, participants were administered the other treatment.
Part B: participants received either an evening dose of eplivanserin 5 mg or matching placebo for 21 days, followed by co-administration with a single dose of zolpidem-IR 10 mg.
After this phase of the study, participants were then administered the reverse treatment sequence.
Adverse events were recorded (Medical Dictionary for Regulatory Activities v9.1). Other measures included vital signs, standard clinical laboratory parameters (biochemistry, hematology, and urinalysis), and electrocardiograms.

[6] = Steady-state levels after repeated administration in the study; format: in vivo, human; settings: after 20 days of repeated administration of eplivanserin 5 mg; also for its active metabolite
Procedure: As a consequence, cognitive/psychomotor performance was assessed under steady state conditions.

[7] = Compensatory Tracking Task (CTT), next-day morning; format: in vivo, human
GABA receptors = settings: unlike benzodiazepines; cited from earlier work
[8] = Critical Flicker Fusion (CFF) test, next-day morning; format: in vivo, human
[9] = set-up: species or system human; settings: in vivo
[10] = Delayed Recall of Word Lists, next-day morning; format: in vivo, human
[11] = eplivanserin 5 mg evening dose for 21 days vs placebo, P>0.1
[12] = flurazepam 30 mg single evening dose vs placebo, P=0.0001

Compound: CN(C)CCO/N=C(/C=C/c1ccc(O)cc1)c1ccccc1F [eplivanserin, (1Z, 2 E)-1-(2-fluorophenyl)-3-(4-hydroxyphenyl)-prop-2-en-1-one-O-(2-dimethylaminoethyl)oxime]
- Immediate word recall number of correct responses, mean difference estimate [1, 11]: −1.04
- Bond and Lader visual analogue scale alertness, mean difference estimate [2, 11]: 9.38
- Overall treatment effect on the 7 primary endpoints (global analysis) ([3]; eplivanserin 5 mg 21 days alone compared with placebo, P=0.0603): not associated with an overall treatment effect
- Absorption [4]: > 70%
- Headache, participants reporting ([5]; Part B, eplivanserin 5 mg 21 days, 6/24, placebo also 25%): 25%
- Dizziness, somnolence and asthenia, participants reporting ([5]; Part B, eplivanserin 5 mg 21 days, 7/24, placebo 4.2% (1/24)): 29.2%
- Tolerability ([5]; eplivanserin 5 mg, alone and in combination with zolpidem): well tolerated
- Steady-state levels [6]: Steady-state levels were reached
- Compensatory tracking task overall average response time, mean difference estimate [7, 11]: 13.03 ms
- Compensatory tracking task overall average tracking errors, mean difference estimate [7, 11]: −0.22 pixels
- Binding to GABA receptors (GABA receptors): does not bind
- CFF point of subjective equality, mean difference estimate ([8]; eplivanserin 5 mg evening dose for 21 days vs placebo, P=0.0002): −1.01 Hz
- CRT total reaction time, mean difference estimate [9]: -10.40 ms
- Delayed word recall number of correct responses, mean difference estimate [10, 11]: −0.33

Compound: CCN(CC)CCN1C(=O)CN=C(c2ccccc2F)c2cc(Cl)ccc21 [flurazepam, reference compound]
- Immediate word recall number of correct responses, mean difference estimate [1, 12]: −3.08
- Bond and Lader visual analogue scale alertness, mean difference estimate ([2]; flurazepam 30 mg single evening dose vs placebo, P=0.0031): 62.38
- Overall treatment effect on the 7 primary endpoints (global analysis) ([3]; flurazepam 30 mg single dose compared with placebo, P=0.0001): associated with an overall treatment effect
- Adverse events reported ([5]; Part A, flurazepam 30 mg single dose, healthy individuals): 2/24
- Compensatory tracking task overall average response time, mean difference estimate ([7]; flurazepam 30 mg single evening dose vs placebo, P=0.0029): 49.98 ms
- Compensatory tracking task overall average tracking errors, mean difference estimate ([7]; flurazepam 30 mg single evening dose vs placebo, P=0.0221): 1.64 pixels
- CFF point of subjective equality, mean difference estimate ([8]; flurazepam 30 mg single evening dose vs placebo, P=0.2005): −0.52 Hz
- CRT total reaction time, mean difference estimate [9]: 47.46 ms
- Delayed word recall number of correct responses, mean difference estimate [10, 12]: −4.38

Compound: Cc1ccc(-c2nc3ccc(C)cn3c2CC(=O)N(C)C)cc1 [zolpidem]
- Adverse events reported ([5]; Part B, co-administration phase with single dose zolpidem-IR 10 mg): 1/24
